Calls of active or inactive are those of the source. No cut-off for these calls is given here.
How the values were obtained:
[1] = Plasma concentration in Balb/c mouse at 10 mg/kg, iv after 2 hrs by LC-MS analysis; assay type: ADME, organism-based
[2] = biological target: Ubiquitin carboxyl-terminal hydrolase 9X (Homo sapiens) (UniProt Q93008); test: Inhibition of USP9x in Vemurafenib resistant human A375 cells
[3] = biological target: T1, Ubiquitin carboxyl-terminal hydrolase 5 (Homo sapiens) (UniProt P45974); test: Inhibition of USP5 in Vemurafenib sensitive human A375 cells
T1 sequence (whole entry): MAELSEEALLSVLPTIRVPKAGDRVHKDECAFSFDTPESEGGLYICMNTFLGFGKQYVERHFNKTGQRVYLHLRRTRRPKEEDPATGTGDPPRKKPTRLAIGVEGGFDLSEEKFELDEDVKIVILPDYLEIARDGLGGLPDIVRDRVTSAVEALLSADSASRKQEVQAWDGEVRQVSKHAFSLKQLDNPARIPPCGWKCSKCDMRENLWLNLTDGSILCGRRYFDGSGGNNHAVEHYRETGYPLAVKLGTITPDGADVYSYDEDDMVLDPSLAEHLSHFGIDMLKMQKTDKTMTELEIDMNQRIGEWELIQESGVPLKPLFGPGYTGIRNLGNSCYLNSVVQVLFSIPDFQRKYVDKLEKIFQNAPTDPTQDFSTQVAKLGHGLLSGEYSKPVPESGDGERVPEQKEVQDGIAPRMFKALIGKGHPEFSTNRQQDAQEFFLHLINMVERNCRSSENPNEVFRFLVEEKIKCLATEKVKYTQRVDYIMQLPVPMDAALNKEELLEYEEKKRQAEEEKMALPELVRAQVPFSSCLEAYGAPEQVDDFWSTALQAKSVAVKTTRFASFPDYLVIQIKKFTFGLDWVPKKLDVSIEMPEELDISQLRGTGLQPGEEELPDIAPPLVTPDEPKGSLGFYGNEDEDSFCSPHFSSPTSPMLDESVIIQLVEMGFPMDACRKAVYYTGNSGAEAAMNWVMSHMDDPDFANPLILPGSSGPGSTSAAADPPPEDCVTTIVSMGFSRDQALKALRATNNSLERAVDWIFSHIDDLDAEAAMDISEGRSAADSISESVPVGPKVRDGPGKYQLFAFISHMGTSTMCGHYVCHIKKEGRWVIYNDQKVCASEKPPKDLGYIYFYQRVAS

[4] = biological target: Ubiquitin carboxyl-terminal hydrolase 9X (Homo sapiens) (UniProt Q93008); test: Inhibition of Usp9x in human MM1.S cells assessed as reduction in caspase activity by measuring cleaved PARP protein levels at 5 uM incubated for 5 to 240 mins by SDS-PAGE and immunoblotting; assay type: cell-based
[5] = biological target: Ubiquitin carboxyl-terminal hydrolase 9X (Homo sapiens) (UniProt Q93008); test: Inhibition of USP9x in Vemurafenib resistant human A375 cells assessed as STAT3 phosphorylation
[6] = Plasma concentration in Balb/c mouse at 30 mg/kg, po after 2 hrs by LC-MS analysis; assay type: ADME, organism-based
[7] = biological target: Ubiquitin carboxyl-terminal hydrolase 9X (Homo sapiens) (UniProt Q93008); test: Inhibition of Usp9x in primary tumor cells from patient with plasma cell leukemia assessed as reduction in MCL-1 protein levels at 5 uM incubated for 30 to 240 mins by SDS-PAGE and immunoblotting; assay type: cell-based
A-375 [8] = test: Antitumor activity against human A375 cells xenografted in NOD/SCID/gamma-2 knockout mouse assessed as inhibition of tumor growth at 15 mg/kg, ip once per day for 8 days; assay type: functional, organism-based
[9] = Plasma concentration in Balb/c mouse at 30 mg/kg, po after 0.5 hrs by LC-MS analysis; assay type: ADME, organism-based
A-375 [10] = test: Induction of p53 protein expression in Vemurafenib sensitive human A375 cells; assay type: functional, cell-based
[11] = tested on: CD34-positive blood stem/progenitor cell; test: Induction of apoptosis in human CD34+ cells at 0.3125 to 5 uM incubated for 24 hrs by annexin V staining based flow cytometry; settings: cd34-positive (myeloid/lymphoid) cell
MM1.S [12] = test: Antitumor activity against human MM1S cells xenografted in NOD/SCID/gamma-2 knockout mouse assessed as inhibition of tumor volume at 5 to 20 mg/kg, ip once per day for 11 days; assay type: functional, organism-based
Murine norovirus [13] = test: Antiviral activity against Murine norovirus infected in Swiss Webster bone marrow derived macrophages assessed as reduction in viral plaque forming units; assay type: functional, organism-based
Murine norovirus [14] = test: Antiviral activity against Murine norovirus infected in Balb/c bone marrow derived macrophages assessed as reduction in viral plaque forming units; assay type: functional, organism-based
MM1.S [15] = test: Induction of apoptosis in human MM1S cells at 0.3125 to 5 uM incubated for 24 hrs by annexin V staining based flow cytometry; assay type: functional, cell-based
MM1.S [16] = test: Antitumor activity against human MM1S cells xenografted in NOD/SCID/gamma-2 knockout mouse assessed as inhibition of tumor growth at 5 to 20 mg/kg, ip once per day for 14 days; assay type: functional, organism-based
Murine norovirus [17] = test: Antiviral activity against Murine norovirus infected in mouse RAW264.7 cells assessed as reduction in viral plaque forming units; assay type: functional, organism-based
Mus musculus [18] = test: Toxicity in human A375 cells xenografted NOD/SCID/gamma-2 knockout mouse assessed as induction of body weight loss at 7.5 to 15 mg/kg, ip once per day for 8 days; assay type: functional, organism-based
[19] = Plasma concentration in Balb/c mouse at 30 mg/kg, po after 4 hrs by LC-MS analysis; assay type: ADME, organism-based
Mus musculus [20] = test: Toxicity in human A375 cells xenografted NOD/SCID/gamma-2 knockout mouse assessed effect on body weight at 15 mg/kg, ip once per day for 8 days; assay type: functional, organism-based
A-375 [21] = test: Induction of p53 protein expression in Vemurafenib resistant human A375 cells; assay type: functional, cell-based
[22] = biological target: T1, Ubiquitin carboxyl-terminal hydrolase 5 (Homo sapiens); test: Inhibition of USP5 in Vemurafenib resistant human A375 cells assessed as reduction in ERK phosphorylation
[23] = biological target: Ubiquitin carboxyl-terminal hydrolase 9X (Homo sapiens) (UniProt Q93008); test: Inhibition of USP9x in Vemurafenib sensitive human A375 cells
[24] = biological target: T1, Ubiquitin carboxyl-terminal hydrolase 5 (Homo sapiens); test: Inhibition of USP5 in Vemurafenib sensitive human A375 cells assessed as reduction in ERK phosphorylation
MM1.S [25] = test: Antitumor activity against human MM1S cells xenografted in NOD/SCID/gamma-2 knockout mouse assessed as inhibition of tumor growth at 2.5 to 10 mg/kg, ip once per day for 14 days; assay type: functional, organism-based
Mus musculus [26] = test: Toxicity in human A375 cells xenografted NOD/SCID/gamma-2 knockout mouse assessed as effect on mobility at 7.5 to 15 mg/kg, ip once per day for 8 days; assay type: functional, organism-based
Mus musculus [27] = test: Toxicity in human A375 cells xenografted NOD/SCID/gamma-2 knockout mouse assessed effect on body weight at 7.5 mg/kg, ip once per day for 8 days; assay type: functional, organism-based
[28] = biological target: T1, Ubiquitin carboxyl-terminal hydrolase 5 (Homo sapiens); test: Inhibition of USP5 in Vemurafenib […] human A375R cells assessed as reduction in ERK phosphorylation
[29] = biological target: T1, Ubiquitin carboxyl-terminal hydrolase 5 (Homo sapiens); test: Inhibition of USP5 in Vemurafenib resistant human A375 cells
Tulane virus = test: Antiviral activity against Tulane virus infected in […] LLC-MK cells assessed as reduction in viral plaque forming units; assay type: functional, organism-based
[30] = AUClast in Balb/c mouse at 10 mg/kg, iv by LC-MS analysis; assay type: ADME, organism-based; set-up: dose 10 mg/kg, route intravenous, time 0 - last; settings: in vivo
A375/R = test: Induction of apoptosis in human A375R cells assessed as induction of caspase-3 activation; assay type: functional, cell-based
[31] = biological target: Ubiquitin carboxyl-terminal hydrolase 9X (Homo sapiens) (UniProt Q93008); test: Inhibition of Usp9x in human MM1.S cells assessed as reduction in MCL-1 protein levels at 5 uM incubated for 5 to 240 mins by SDS-PAGE and immunoblotting; assay type: cell-based

Sequence of Ubiquitin carboxyl-terminal hydrolase 9X (Homo sapiens) (Q93008 whole entry): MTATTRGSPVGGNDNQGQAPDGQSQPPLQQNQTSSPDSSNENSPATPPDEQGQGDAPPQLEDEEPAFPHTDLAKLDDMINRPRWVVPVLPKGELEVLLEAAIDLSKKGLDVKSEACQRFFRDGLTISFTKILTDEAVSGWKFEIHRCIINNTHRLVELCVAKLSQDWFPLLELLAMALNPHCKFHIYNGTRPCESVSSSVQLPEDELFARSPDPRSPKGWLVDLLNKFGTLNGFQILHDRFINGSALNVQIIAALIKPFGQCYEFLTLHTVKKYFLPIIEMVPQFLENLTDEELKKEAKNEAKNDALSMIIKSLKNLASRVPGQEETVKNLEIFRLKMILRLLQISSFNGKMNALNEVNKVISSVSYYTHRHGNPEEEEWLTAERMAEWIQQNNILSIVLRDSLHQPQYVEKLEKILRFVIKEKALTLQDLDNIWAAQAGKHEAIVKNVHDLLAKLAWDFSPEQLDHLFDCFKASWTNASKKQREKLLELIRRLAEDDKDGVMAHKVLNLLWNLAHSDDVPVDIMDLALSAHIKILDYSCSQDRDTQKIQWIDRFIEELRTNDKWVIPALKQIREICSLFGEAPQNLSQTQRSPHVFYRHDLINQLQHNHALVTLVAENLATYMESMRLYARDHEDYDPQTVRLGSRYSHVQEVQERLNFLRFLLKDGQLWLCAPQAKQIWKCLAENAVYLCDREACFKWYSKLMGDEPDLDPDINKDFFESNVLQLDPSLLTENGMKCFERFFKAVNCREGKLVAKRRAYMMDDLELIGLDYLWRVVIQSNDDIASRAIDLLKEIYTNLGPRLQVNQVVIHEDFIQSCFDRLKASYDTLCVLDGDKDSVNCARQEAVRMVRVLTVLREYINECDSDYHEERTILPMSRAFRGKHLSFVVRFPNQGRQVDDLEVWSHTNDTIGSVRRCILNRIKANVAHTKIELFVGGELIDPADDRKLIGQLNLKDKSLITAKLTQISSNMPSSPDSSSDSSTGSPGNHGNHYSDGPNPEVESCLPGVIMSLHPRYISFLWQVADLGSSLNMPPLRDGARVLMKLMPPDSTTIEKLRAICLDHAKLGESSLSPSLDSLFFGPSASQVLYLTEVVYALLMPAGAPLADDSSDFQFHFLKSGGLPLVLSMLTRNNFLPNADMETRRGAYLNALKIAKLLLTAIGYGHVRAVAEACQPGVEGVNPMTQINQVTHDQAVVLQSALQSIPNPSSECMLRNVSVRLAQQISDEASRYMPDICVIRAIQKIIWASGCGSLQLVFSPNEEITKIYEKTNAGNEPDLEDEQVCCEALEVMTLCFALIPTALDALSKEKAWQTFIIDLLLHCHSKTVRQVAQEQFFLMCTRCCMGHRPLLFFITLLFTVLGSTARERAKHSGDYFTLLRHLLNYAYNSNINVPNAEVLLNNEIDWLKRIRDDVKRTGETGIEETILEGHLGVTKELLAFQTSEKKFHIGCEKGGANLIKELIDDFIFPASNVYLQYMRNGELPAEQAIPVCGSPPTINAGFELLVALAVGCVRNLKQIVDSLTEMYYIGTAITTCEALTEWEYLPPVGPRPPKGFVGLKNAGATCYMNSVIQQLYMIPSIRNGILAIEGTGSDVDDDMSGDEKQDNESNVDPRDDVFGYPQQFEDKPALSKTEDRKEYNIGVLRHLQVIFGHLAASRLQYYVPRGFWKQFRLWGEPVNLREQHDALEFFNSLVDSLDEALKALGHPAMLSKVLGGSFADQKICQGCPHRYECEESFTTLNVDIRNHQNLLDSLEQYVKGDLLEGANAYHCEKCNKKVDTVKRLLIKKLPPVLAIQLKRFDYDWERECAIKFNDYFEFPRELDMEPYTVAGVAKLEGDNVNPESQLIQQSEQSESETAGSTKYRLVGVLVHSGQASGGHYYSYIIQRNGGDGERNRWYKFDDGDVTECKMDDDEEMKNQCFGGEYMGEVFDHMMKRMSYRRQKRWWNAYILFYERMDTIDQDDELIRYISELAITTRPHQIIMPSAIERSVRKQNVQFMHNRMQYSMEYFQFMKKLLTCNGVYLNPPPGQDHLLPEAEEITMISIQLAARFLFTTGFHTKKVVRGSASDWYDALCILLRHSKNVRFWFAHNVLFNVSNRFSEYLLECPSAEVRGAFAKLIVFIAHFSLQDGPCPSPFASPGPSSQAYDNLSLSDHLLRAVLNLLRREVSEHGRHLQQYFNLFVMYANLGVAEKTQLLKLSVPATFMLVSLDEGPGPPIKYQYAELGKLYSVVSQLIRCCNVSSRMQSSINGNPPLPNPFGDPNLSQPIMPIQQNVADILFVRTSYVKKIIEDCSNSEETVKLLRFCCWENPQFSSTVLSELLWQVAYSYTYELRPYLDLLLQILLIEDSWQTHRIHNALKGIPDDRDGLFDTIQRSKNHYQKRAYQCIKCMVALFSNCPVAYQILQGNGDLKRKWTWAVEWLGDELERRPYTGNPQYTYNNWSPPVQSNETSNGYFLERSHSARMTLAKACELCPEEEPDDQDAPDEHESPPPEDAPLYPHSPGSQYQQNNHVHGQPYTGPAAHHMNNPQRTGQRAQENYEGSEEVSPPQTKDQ

concentration at 2 h [1]: 395 to 520 ng/mL | inhibition [2]: Active | inhibition [3]: Active | inhibition [4]: Active | inhibition [5]: Active | concentration at 2 h [6]: 35.8 to 59 ng/mL | inhibition [7]: Active | concentration at 0.5 h [9]: 60.8 to 78.7 ng/mL | concentration at 4 h [19]: 44.5 to 57.1 ng/mL | inhibition [22]: Active | inhibition [23]: Active | inhibition [24]: Active | inhibition [28]: Active | inhibition [29]: Active | AUC(0-t) [30]: 3570 to 3730 ng·h/mL | inhibition [31]: Active
Structure (SMILES): CCCC(NC(=O)/C(C#N)=C/c1nc(Cl)ccc1Cl)c1ccc(OCCN2CCOCC2)cc1 (stereo not drawn)
TGI (A-375 [8]): Active | Activity (A-375 [10]): inactive | Activity [11]: Non-Toxic | Activity (MM1.S [12]): Active | Activity (Murine norovirus [13]): Active | Activity (Murine norovirus [14]): Active | Activity (MM1.S [15]): Active | TGI (MM1.S [16]): Active | Activity (Murine norovirus [17]): Active | Activity (Mus musculus [18]): Not toxic | Activity (Mus musculus [20]): Not toxic | Activity (A-375 [21]): inactive | TGI (MM1.S [25]): Active | Activity (Mus musculus [26]): Not toxic | Activity (Mus musculus [27]): Not toxic | Activity (Tulane virus): Active | Activity (A375/R): Active

From ChEMBL document CHEMBL4257227, “Deubiquitinase inhibitors and methods for use of the same” (2016)
